Test results reported in patent US20130288897A1, “SYNERGISTIC PESTICIDAL COMPOSITIONS” (Dow AgroSciences LLC, priority 2012, published 2013).
Where “and” joins values, the source holds several entries; their conditions need not be identical. Equal values may be shown once.

Columns and labels:
Assay type in all cases: in vivo
[1] = system: cotton aphid (CA) Aphis gossypii; assay: Cotton aphid track-sprayer test on cotton: Compound A or imidacloprid with Durango (glyphosate) or Durango Blank and AMS (Example XVI); conditions: for % Control (Negatives to zero) Ave / % control Ave / Colbv predicted values Ave: average of 5 reps
Procedure: Glyphosate resistant cotton plants (Gossypium hirsutum, cv ‘DP493’) were trimmed to 1 true leaf and infested with mixed stages of cotton aphid (CA) Aphis gossypii 24 h prior to application. Mixed developmental stage CA were infested onto the upper surface of each treated leaf by transferring infested foliage from an insectary colony. Each plant was infested with approximately equal numbers of CA based on visual estimation of aphid density on the infested material. Infested plants were held in the growth chamber (L:D 16:8 and 25° C.). Glyphosate (Durango®, Dow AgroSciences, LLC, Indianapolis, Ind.) was mixed with water at a rate equivalent to 15 ml/L (1.2 qt/Ac). […] A glyphosate free formulation of Durango® was prepared using these same mixing instructions. […] High rate Compound A concentrations were created by diluting Compound A technical material with acetone to achieve a 10 ppm solution. […] […] […] Nozzle height above the canopy was held constant at ca. 30 cm. Plants were evaluated after 3 days from the time of infestation by counting all live cotton aphids on each plant.
[…] Percent control for all treatments was calculated using the rep average for the untreated plants.

[2] = system: cotton aphid (CA) Aphis gossypii; assay: Cotton aphid track-sprayer test on cotton: Compound A or imidacloprid with glufosinate (Liberty) and AMS (Example XVII); conditions: for Colby Predicted Values Ave: combination with glufosinate
Procedure: (§1) Glyphosate resistant cotton plants (Gossypium hirsutum, cv ‘DP493’) were trimmed to 1 true leaf and infested with mixed stages of cotton aphid (CA) Aphis gossypii 24 h prior to application. Mixed developmental stage CA were infested onto the upper surface of each treated leaf by transferring infested foliage from an insectary colony. Each plant was infested with approximately equal numbers of CA based on visual estimation of aphid density on the infested material. Infested plants were held in the growth chamber (L:D 16:8 and 25° C.). Glufosinate (Liberty®, Bayer CropScience, Monheim am Rhein, Germany) was mixed with water at a rate equivalent to 5 ml/L (0.4 qt/Ac). […] High rate Compound A concentrations were created by diluting Compound A technical material with acetone to achieve a 10 ppm solution. […] […] […] Nozzle height above the canopy was held constant at ca. 30 cm. Plants were evaluated after 3 days from the time of infestation by counting all live cotton aphids on each plant.
TABLE 6 contains the calculated Colby values for combinations of treatments as well as the outcome of statistical evaluations between predicted (Colby) and actual measured values. These T-test statistics were only calculated for the 0.2 and 0.05 g/Ha rates. […] These same trends were apparent when Compound A was applied with both glufosinate and AMS.

[3] = system: cotton aphid (CA) Aphis gossypii; assay: Cotton aphid track-sprayer test on cotton: Compound A with glufosinate (Liberty) and AMS, rates 0.4, 0.1 and 0.025 g/Ha (Example XVIII); conditions: for % control Negatives to zero / CA Counts / Colby Predicted Values: Rep 1-6
Procedure: as §1, with “24 hours” for “24 h”, “a 20” for “a 10”

[4] = 0.0125 g insecticide/Ha with Durango 0.015 ml/ml + AMS 18 g/L
[5] = 0.0125 g insecticide/Ha with Durango 0.015 ml/ml
[6] = 0.0125 g insecticide/Ha with Durango Blank 0.015 ml/ml + AMS 18 g/L
[7] = 0.0125 g insecticide/Ha with Durango Blank 0.015 ml/ml
[8] = 0.05 g insecticide/Ha with Durango 0.015 ml/ml + AMS 18 g/L
[9] = 0.05 g insecticide/Ha with Durango 0.015 ml/ml
[10] = 0.05 g insecticide/Ha with Durango Blank 0.015 ml/ml + AMS 18 g/L
[11] = 0.05 g insecticide/Ha with Durango Blank 0.015 ml/ml
[12] = 0.2 g insecticide/Ha with Durango 0.015 ml/ml + AMS 18 g/L
[13] = 0.2 g insecticide/Ha with Durango 0.015 ml/ml
[14] = 0.2 g insecticide/Ha with Durango Blank 0.015 ml/ml + AMS 18 g/L
[15] = 0.2 g insecticide/Ha with Durango Blank 0.015 ml/ml
[16] = 0.05 g In./HA + Lib. 0.005 ml/ml
[17] = 0.05 g In./HA + Lib. 0.005 ml/ml + AMS 18 g/L
[18] = 0.2 g In./HA + Lib. 0.005 ml/ml
[19] = 0.2 g In./HA + Lib. 0.005 ml/ml + AMS 18 g/L
[20] = 0.8 g In./HA + Lib. 0.005 ml/ml
[21] = 0.8 g In./HA + Lib. 0.005 ml/ml + AMS 18 g/L

SMILES: O=[N+]([O-])NC1=NCCN1Cc1ccc(Cl)nc1 [Imidacloprid, imidacloprid, reference compound]
- % Control (Negatives to zero) Ave [1, 4]: 26.3%
- % control Ave [1, 4]: 26.3%
- Colbv predicted values Ave [1, 4]: 42.0
- % Control (Negatives to zero) Ave [1, 5]: 17.2%
- % control Ave [1, 5]: −0.3%
- Colbv predicted values Ave [1, 5]: 35.1
- % Control (Negatives to zero) Ave [1, 6]: 24.7%
- % control Ave [1, 6]: −1.1%
- Colbv predicted values Ave [1, 6]: 51.7
- % Control (Negatives to zero) Ave [1, 7]: 15.1%
- % control Ave [1, 7]: −17.6%
- Colbv predicted values Ave [1, 7]: 33.8
- % control Ave ([1]; 0.0125 g insecticide/Ha, no herbicide, no AMS): 15.1%
- CA Counts ([1]; 0.05 g insecticide/Ha with Durango 0.015 ml/ml + AMS 18 g/L, Rep 1-5, listed as lmidacloprid): 49 and 50 and 71 and 64 and 54
- % Control (Negatives to zero) Ave [1, 8]: 37.3%
- % control Ave [1, 8]: 37.3%
- Colbv predicted values Ave [1, 8]: 46.5
- % Control (Negatives to zero) Ave [1, 9]: 25.4%
- % control Ave [1, 9]: 21.8%
- Colbv predicted values Ave [1, 9]: 38.2
- CA Counts ([1]; 0.05 g insecticide/Ha with Durango Blank 0.015 ml/ml + AMS 18 g/L, Rep 1-5, listed as lmidacloprid): 82 and 81 and 108 and 73 and 95
- % Control (Negatives to zero) Ave [1, 10]: 11.2%
- % control Ave [1, 10]: 5.6%
- Colbv predicted values Ave [1, 10]: 58.0
- % Control (Negatives to zero) Ave [1, 11]: 24.8%
- % control Ave [1, 11]: 20.1%
- Colbv predicted values Ave [1, 11]: 41.2
- % control Ave ([1]; 0.05 g insecticide/Ha, no herbicide, no AMS): 29.9%
- Colbv predicted values ([1]; 0.2 g insecticide/Ha with Durango 0.015 ml/ml + AMS 18 g/L, Rep 1-5, listed as lmidacloprid): 88.5 and 68.2 and 93.5 and 56.2 and 48.8
- % Control (Negatives to zero) Ave [1, 12]: 30.8%
- % control Ave [1, 12]: 23.9%
- Colbv predicted values Ave [1, 12]: 71.0
- Colbv predicted values ([1]; 0.2 g insecticide/Ha with Durango 0.015 ml/ml, Rep 1-5, expected additive control, listed as lmidacloprid): 74.5 and 68.6 and 84.8 and 56.2 and 48.8
- % Control (Negatives to zero) Ave [1, 13]: 45.5%
- % control Ave [1, 13]: 45.5%
- Colbv predicted values Ave [1, 13]: 66.6
- Colbv predicted values ([1]; 0.2 g insecticide/Ha with Durango Blank 0.015 ml/ml + AMS 18 g/L, Rep 1-5, listed as lmidacloprid): 96.1 and 88.7 and 75.9 and 68.4 and 48.8
- % Control (Negatives to zero) Ave [1, 14]: 32.2%
- % control Ave [1, 14]: 27.3%
- Colbv predicted values Ave [1, 14]: 75.2
- Colbv predicted values ([1]; 0.2 g insecticide/Ha with Durango Blank 0.015 ml/ml, Rep 1-5, listed as lmidacloprid): 84.2 and 67.7 and 71.9 and 56.2 and 48.8
- % Control (Negatives to zero) Ave [1, 15]: 55.3%
- % control Ave [1, 15]: 55.3%
- Colbv predicted values Ave [1, 15]: 65.7
- synergy assessment (measured vs predicted additive Colby values) ([1]; 0.2 g insecticide/Ha, co-applied with AMS and Durango): antagonism of imidacloprid activity
- CA Counts ([1]; 0.2 g insecticide/Ha, no herbicide, no AMS, Rep 1-5, live aphids per plant after 3 days, listed as lmidacloprid): 30 and 51 and 44 and 32 and 38
- % control ([1]; 0.2 g insecticide/Ha, no herbicide, no AMS, Rep 1-5, vs rep average of untreated plants, listed as lmidacloprid): 74.5% and 50.4% and 61.1% and 56.2% and 48.8%
- % control Ave ([1]; 0.2 g insecticide/Ha, no herbicide, no AMS): 58.2%
- synergy assessment (measured vs predicted additive Colby values) ([1]; 0.2 g insecticide/Ha, only Durango mixed): no effects
- synergy assessment (measured vs predicted additive Colby values) ([1]; 0.2 g insecticide/Ha, with Durango blank and AMS): antagonistic effect
- synergy assessment (measured vs predicted additive Colby values) ([1]; 0.2 g insecticide/Ha, with Durango blank formulation): no significant difference between predicted and measured activity
- % control AVE ([2]; 0.0125 g In./Ha + glufosinate 0.005 ml/ml): 66.5%
- Colby Predicted Values Ave ([2]; 0.0125 g In./Ha): 53.6
- % control AVE ([2]; 0.05 g In./Ha + glufosinate 0.005 ml/ml): 51.2%
- Colby Predicted Values Ave ([2]; 0.05 g In./Ha): 53.8
- % control AVE ([2]; 0.2 g In./Ha + glufosinate 0.005 ml/ml): 58.2%
- Colby Predicted Values Ave ([2]; 0.2 g In./Ha): 59.6
- synergy assessment (measured vs predicted Colby values) ([2]; insecticide applied together with glufosinate): not different from the calculated additive values
- synergy assessment (measured vs predicted Colby values) ([2]; insecticide with glufosinate and AMS): No evidence of synergy
- % Control (Negatives to zero) Ave [3, 16]: 24.3%
- Colby Predicted Values Ave [3, 16]: 45.1
- % Control (Negatives to zero) Ave [3, 17]: 76.9%
- Colby Predicted Values Ave [3, 17]: 51.7
- % Control (Negatives to zero) Ave ([3]; 0.05 g In./HA, no Lib., no AMS): 19.0%
- % Control (Negatives to zero) Ave [3, 18]: 27.0%
- Colby Predicted Values Ave [3, 18]: 54.6
- % Control (Negatives to zero) Ave [3, 19]: 54.3%
- Colby Predicted Values Ave [3, 19]: 60.7
- % Control (Negatives to zero) Ave ([3]; 0.2 g In./HA, no Lib., no AMS): 38.7%
- % Control (Negatives to zero) Ave [3, 20]: 72.3%
- Colby Predicted Values Ave [3, 20]: 86.1
- % Control (Negatives to zero) Ave [3, 21]: 96.5%
- Colby Predicted Values Ave [3, 21]: 88.0
- % Control (Negatives to zero) Ave ([3]; 0.8 g In./HA, no Lib., no AMS): 80.0%
- % control Negatives to zero [3, 17]: 84.6% and 71.0% and 86.9% and 48.9% and 79.9% and 89.9%
- CA Counts ([3]; 0.2 g In./Ha + Liberty 0.005 ml/ml): 187 and 234 and 169 and 198 and 265 and 240
- CA Counts ([3]; 0.2 g In./Ha, no Liberty, no AMS): 154 and 165 and 228 and 241 and 176 and 123
- % control Negatives to zero [3, 20]: 87.5% and 73.3% and 71.0% and 78.3% and 69.2% and 54.7%
- Colby Predicted Values [3, 20]: 81.9 and 81.5 and 94.8 and 78.1 and 94.0 and 86.3
- % control Negatives to zero [3, 21]: 96.7% and 94.4% and 96.0% and 94.2% and 98.3% and 99.7%
- Colby Predicted Values [3, 21]: 86.8 and 83.6 and 95.2 and 78.2 and 94.5 and 89.7
- % control Negatives to zero ([3]; 0.8 g In./HA, no Lib., no AMS): 75.5% and 81.5% and 91.6% and 73.2% and 74.2% and 84.3%
